In patent US20050209278A1, “Piperidinyl- and piperazinyl-sulfonylmethyl hydroxamic acids and their use as protease inhibitors” (priority 2002, published 2005):
Like-named read-outs stand apart in the source and are kept apart here.

What was measured:
MMP-13 = target: T1, MMP-13 (Homo sapiens, UniProt P45452); experiment: In vitro MMP inhibition, Ki determination (fluorogenic substrate II); format: biochemical; conditions: read-out: MMP-13 Ki
T1 construct: made in house; host or cells: baculovirus / insect cells
Method in brief: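 Room-temperature, 1 h incubation of APMA-activated recombinant human MMP-13 with 4 μM quenched substrate II (cleaved at Gly-Leu) in pH 7.5 Tris/NaCl/CaCl2 buffer. Inhibition appears as a slowed rise in 330/420 nm fluorescence. Single low enzyme and substrate levels were used for Ki.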

MMP-14 = target: T2, MMP-14 (Homo sapiens, UniProt P50281); experiment: as above; format: biochemical; conditions: read-out: MMP-14 Ki
T2 construct: The catalytic domain enzyme was expressed in E. coli inclusion bodies, solubilized in urea; made in house
Method in brief: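 Apparent Ki was fitted with Morrison's equation from reaction rates at a single low enzyme level. Enzyme was APMA- or trypsin-activated refolded MMP-14 catalytic domain, buffered at pH 7.5 with 10 mM CaCl2.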

Structure (SMILES) | Ki (MMP-13; value not in parenthesis) [nM] | Ki (MMP-14; value not in parenthesis) [nM] | Ki (MMP-13; value outside parentheses) [nM] | Ki (MMP-14; value outside parentheses) [nM]
O=C(NO)C1(S(=O)(=O)N2CCN(c3ncc(-c4ccc(Cl)cc4)cn3)CC2)CCOCC1 [Example 66] | 0.25 | 1120 |  | 
CCCCc1cnc(N2CCN(S(=O)(=O)C3(C(=O)NO)CCOCC3)CC2)nc1 [Example 105] | 1.88 | 1660 |  | 
CCCCc1ccc(N2CCN(S(=O)(=O)C3(C(=O)NO)CCOCC3)CC2)nc1 [Example 168] | 0.21 | 534 |  | 
CCc1ccc(-c2ccc(C3CCN(S(=O)(=O)C4(C(=O)NO)CCOCC4)CC3)nc2)cc1 [Example 393] |  |  | 1.09 | 194
CCCCc1ccc(C2CCN(S(=O)(=O)C3(C(=O)NO)CCN(CCOC)CC3)CC2)nc1 [Example 397] |  |  | 0.54 | 2920
O=C(NO)C1(S(=O)(=O)N2CCC(c3ccc(OCc4ccccc4)cn3)CC2)CCOCC1 [Example 398] |  |  | 0.15 | 514
N#Cc1ccc(-c2cnc(N3CCN(S(=O)(=O)C4(C(=O)NO)CCOCC4)CC3)s2)cc1 [Example 399] |  |  | 0.04 | 9.69
CCCC#Cc1cnc(N2CCN(S(=O)(=O)C3(C(=O)NO)CCOCC3)CC2)s1 [Example 400] |  |  | 0.28 | 724
CCCCCC/C=C\C1CCN(S(=O)(=O)C2(C(=O)NO)CCOCC2)CC1 [Example 401] |  |  | 9.05 | 2720
CCCCCC/C=C/C1CCN(S(=O)(=O)C2(C(=O)NO)CCOCC2)CC1 [Example 402] |  |  | 0.58 | 
O=C(NO)C1(S(=O)(=O)N2CCC(COCc3ccc(C(F)(F)F)cc3)CC2)CCOCC1 [Example 403] |  |  | 2.47 | 129
O=C(NO)C1(S(=O)(=O)N2CCC(COCc3ccc(OC(F)(F)F)cc3)CC2)CCOCC1 [Example 404] |  |  | 0.33 | 71.8
O=C(NO)C1(S(=O)(=O)N2CCC(COCc3ccc(SC(F)(F)F)cc3)CC2)CCOCC1 [Example 405] |  |  | 0.18 | 95.7
CCCCCCCOC1CCN(S(=O)(=O)C2(C(=O)NO)CCOCC2)CC1 [Example 406] |  |  | 1.28 | 1190
O=C(NO)C1(S(=O)(=O)N2CCC(c3ccc(-c4cccs4)c(F)c3)CC2)CCOCC1 [Example 407] |  |  | 0.78 | 3030
O=C(NO)C1(S(=O)(=O)N2CCC(c3ccc(N4CCCC4)cn3)CC2)CCOCC1 [Example 408] |  |  | 11 | 1050
O=C(NO)C1(S(=O)(=O)N2CCC(c3ccc(-c4ccccn4)cn3)CC2)CCOCC1 [Example 409] |  |  | 22.3 | 1770
CCCCOc1ccc(C2CCN(S(=O)(=O)C3(C(=O)NO)CCOCC3)CC2)nc1 [Example 410] |  |  | 0.2 | 1360
CCC(F)(F)CCc1ccc(C2CCN(S(=O)(=O)C3(C(=O)NO)CCOCC3)CC2)cn1 [Example 411] |  |  | 7.75 | > 10000
Cc1ccc(-c2csc(N3CCN(S(=O)(=O)C4(C(=O)NO)CCOCC4)CC3)n2)cc1 [Example 412] |  |  | > 10000 | > 10000
Cc1cccc(-c2csc(N3CCN(S(=O)(=O)C4(C(=O)NO)CCOCC4)CC3)n2)c1 [Example 413] |  |  | 4830 | > 10000
O=C(NO)C1(S(=O)(=O)N2CCN(c3nc(-c4ccccc4)cs3)CC2)CCOCC1 [Example 415] |  |  | 2420 | > 10000
Cc1ccc(-c2ccc(C3CCN(S(=O)(=O)C4(C(=O)NO)CCOCC4)CC3)nc2)s1 [Example 416] |  |  | 1.35 | 506
O=C(NO)C1(S(=O)(=O)N2CCC(c3ccc(-c4cccc(F)c4)cn3)CC2)CCOCC1 [Example 417] |  |  | 3.84 | 1300
O=C(NO)C1(S(=O)(=O)N2CCC(c3ccc(OCCC(F)(F)F)cn3)CC2)CCOCC1 [Example 418] |  |  | 0.46 | 5360
O=C(NO)C1(S(=O)(=O)N2CCN(c3ccc(-c4nn[nH]n4)cc3)CC2)CCOCC1 [Example 419] |  |  | 34 | > 10000
CCCCc1ccc(C2(O)CCN(S(=O)(=O)C3(C(=O)NO)CCOCC3)CC2)nc1 [Example 420] |  |  | 175 | > 10000
